Measurements: patent US5565426A, “Peptide compounds active in cell adhesion processes” (Adir et Compagnie, priority 1992, dated 1996)
Non-standard residues stand in square brackets, D forms with d. Residues, ends and D or L forms follow the SMILES beside them. GABA = NCCCC(=O)O

What was measured:
[1] = system: mice (CD-1), collagen/adrenaline-induced thromboembolism; assay: Thromboembolism in mice (collagen + adrenaline i.v.); format: in vivo; details: for dose from which formation of microthrombi in the lungs is inhibited: histological examination of lungs; for dose that protects half of the mice: i.v., injected with collagen + adrenaline, death or paralysis at 15 min
Protocol: Male mice (CD-1) weighing from 28 to 32 g are used for these experiments. The animals are maintained at from 26° to 28° C. for the 30 minutes preceding the experiment. A combination of collagen (150 μg/ml) and adrenaline (100 μmol/l) causes the mice to die by paralysis. Each mouse receives 0.1 ml of that combination, which gives a dose of 1.8 μg of adrenaline and 15 μg of collagen per mouse. The incidence of death or paralysis is observed 15 minutes after the intravenous injection (i.v.) of the combination (adrenaline+collagen) into the caudal vein. The peptides are injected at the same time as the combination of agonists. In the case of the tests relating to the duration of action, the mice are pre-treated with the peptides i.v. in a volume of 0.1 ml. A histological examination of the lungs is carried out in order to visualise the presence of microthrombi in the vessels of the microcirculation, which are attributable to the adrenaline-collagen combination. At the end of the experiment, the lungs are rapidly removed, fixed in formalin and then enclosed in paraffin. 5 μm sections are made and coloured with haematoxylin/eosin. The sections are examined and the presence or absence of microthrombi is noted. The X^2 test (Fischer) is used to determine whether there is a significant difference between the effects in mice that have received the peptides and those that have not.

[2] = system: formation of a blood clot in the mesenteric artery of the rat; assay: Experimental thrombosis in the mesenteric artery of the rat; format: in vivo; details: venous infusion for 5 min
Protocol: The experiments were carried out on male rats (250 to 400 g). The animals are anaesthetised with pentobarbitone (50 mg/kg i.p.). A catheter is installed in the jugular vein in order to permit i.v. injections.
The preparation of the mesenteric artery and the induction of thrombosis are carried out in accordance with the method described by Bourgain et al. Adv. Exp. Med. Biol., 180, 635-649, (1984). A longitudinal incision is made in the abdomen and part of the intestine is exposed. Using a binocular magnifying device, a branch of the mesenteric artery from 200 to 500 μm in diameter is prepared. The adjacent vein is separated and the adipose tissues are removed; a 2 mm segment of artery is thus prepared. The animal is then installed under a microscope and the segment of the mesenteric artery is perfused with physiological solution (37° C.) at 5 ml/min. The segment can be observed for several hours. The images are recorded using a video camera and a magnetoscope.
After installation and stabilisation of the preparation, a platinum electrode is placed on each side of the arteriole wall using a micromanipulator. An endothelial lesion is then induced by applying for 60 seconds an electric current of 40 μA, the current being reversed every 5 seconds. […] Normally, no thrombus formation is observed on applying the electric current.
The formation of a clot is then induced by perfusion with ADP (adenosine diphosphate) for 2 minutes. The ADP is used at a final molarity of 300 μM. The clot forms and then, after 2 to 5 minutes, disappears by embolisation. The vessel then re-assumes a normal state; there is no spontaneous formation of a clot.
The effect of the products on the formation of thrombi was tested by treating the animals by venous infusion for 5 minutes. The infusion starts […] minute before perfusion with ADP.
The recorded images are analysed and the size of the clots is expressed in arbitrary surface values. The measurements are carried out at determined times during and after the perfusion of ADP. A comparison can therefore be made of the size of the clots in the control state and after the infusion of the product.

| Structure (SMILES) | dose from which formation of microthrombi in the lungs is inhibited [1] | dose that protects half of the mice [1] | times more active than the reference substance (RGDW) ([1]; ratio of doses protecting half of the mice) | Percentage inhibition of the formation of a blood clot in the mesenteric artery of the rat ([2]; 2 mg/kg/min) | Percentage inhibition of the formation of a blood clot in the mesenteric artery of the rat ([2]; 5 mg/kg/min) | Percentage inhibition of the formation of a blood clot in the mesenteric artery of the rat ([2]; 10 mg/kg/min) | duration of action ([1]; dose of 1 mg, i.v. pre-treatment) |
| --- | --- | --- | --- | --- | --- | --- | --- |
| N=C(N)NCCC[C@H](NC(=O)CCCN)C(=O)NCC(=O)N[C@@H](CC(=O)O)C(=O)N[C@@H](Cc1c[nH]c2ccccc12)C(=O)O [Example 11, H2 N--(CH2)3 --CO--Arg--Gly--Asp--Trp--OH] (H-[GABA]RGDW-OH) | ≥ 0.03 mg/mouse | 0.03 mg/mouse | 10 times | – | – | – | – |
| NCCCC[C@H](NC(=O)CCCN)C(=O)NCC(=O)N[C@@H](CC(=O)O)C(=O)N[C@@H](Cc1c[nH]c2ccccc12)C(=O)O [Example 12, H2 N--(CH2)3 --CO--Lys--Gly--Asp--Trp--OH] (H-[GABA]KGDW-OH) | – | – | – | 17% | 33% | 56% | – |
| N=C(N)NCCC[C@H](N)C(=O)NCC(=O)N[C@@H](CC(=O)O)C(=O)N[C@@H](Cc1c[nH]c2ccccc12)C(=O)O [H--Arg--Gly--Asp--Trp--OH, reference compound] (H-RGDW-OH) | ≥ 1 mg/mouse | 0.3 mg/mouse | – | – | – | 36% | less than 5 minutes |
